The results in this text go back to US10617693B2, “Methods of treating and/or preventing actinic keratosis” (Athenex, Inc., priority 2017, dated 2020).

In this data set the test system is skin of forearm or forehead of AK patients. The data set can be described thus: Comparison of skin reactions, photographs (FIGS. 3A-4B). The format is in vivo, human. The text has this:
The comparison in FIGS. 3A, 3B, 4A, and 4B illustrates the lack of skin toxicity observed in the treatment of AK with topically administered KX-01 compared to the approved therapy for AK.

Molecules are shown by their SMILES.

`O=C(Cc1ccc(-c2ccc(OCCN3CCOCC3)cc2)cn1)NCc1ccccc1` [KX-01]: the “Skin reaction in the forearm” value (day 3 and day 5 of treatment) is reported as “minimal or no adverse skin reactions”. Moreover, the “Skin reaction in the forehead” value (day 8 and day 57, subject with 100% response) is given as “minimal or no adverse skin reactions”. The “Skin reactions compared with Picato” value (in vivo) was “fewer and less severe skin reactions”. Further, the “Efficacy for clearing AK lesions compared with Picato” value (initial data of Examples 1, 2a, 2b) is recorded as “may be similar”.
